From PubChem BioAssay (NCI)
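Abbreviation: GI50, concentration required for 50% inhibition of growth. TGI: concentration producing complete growth inhibition.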

What was measured:
Assay in all cases: DTP human tumour cell line panel, 384-well format
OVCAR-5 ovarian = system: OVCAR-5 ovarian
BT-549 breast = system: BT-549 breast
K-562 leukemia = system: K-562 leukemia
UACC-257 melanoma = system: UACC-257 melanoma
OVCAR-8 ovarian = system: OVCAR-8 ovarian
HL-60(TB) leukemia = system: HL-60(TB) leukemia
SNB-75 CNS = system: SNB-75 CNS
HOP-62 NSCLC = system: HOP-62 NSCLC
UO-31 renal = system: UO-31 renal
ACHN renal = system: ACHN renal
HT29 colon = system: HT29 colon
KM12 colon = system: KM12 colon
OVCAR-4 ovarian = system: OVCAR-4 ovarian
OVCAR-3 ovarian = system: OVCAR-3 ovarian
MDA-MB-435 melanoma = system: MDA-MB-435 melanoma
NCI-H522 lung = system: NCI-H522 lung
HS 578T breast = system: HS 578T breast
MDA-MB-468 breast = system: MDA-MB-468 breast
CAKI-1 renal = system: CAKI-1 renal
NCI/ADR-RES ovarian = system: NCI/ADR-RES ovarian
SF-268 CNS = system: SF-268 CNS
SN12C renal = system: SN12C renal
SK-MEL-2 melanoma = system: SK-MEL-2 melanoma
SW-620 colon = system: SW-620 colon
HCT-15 colon = system: HCT-15 colon
EKVX NSCLC = system: EKVX NSCLC
HOP-92 NSCLC = system: HOP-92 NSCLC
RXF 393 renal = system: RXF 393 renal
NCI-H226 lung = system: NCI-H226 lung
PC-3 prostate = system: PC-3 prostate
SNB-19 CNS = system: SNB-19 CNS
IGROV1 ovarian = system: IGROV1 ovarian
SF-539 CNS = system: SF-539 CNS
M14 melanoma = system: M14 melanoma
UACC-62 melanoma = system: UACC-62 melanoma
RPMI-8226 leukemia = system: RPMI-8226 leukemia
786-0 renal = system: 786-0 renal
HCT-116 colon = system: HCT-116 colon
MCF7 breast = system: MCF7 breast
CCRF-CEM leukemia = system: CCRF-CEM leukemia
U251 glioblastoma = system: U251 glioblastoma
MDA-MB-231 breast = system: MDA-MB-231 breast
MOLT-4 leukemia = system: MOLT-4 leukemia
DU-145 prostate = system: DU-145 prostate
MALME-3M melanoma = system: MALME-3M melanoma
SK-MEL-28 melanoma = system: SK-MEL-28 melanoma

Question: Which results are given for CC1=C(/C=C/C(C)=C/C=C/C(C)=C/C(=O)O)C(C)(C)CCC1?
Answer: GI50 (OVCAR-5 ovarian): 37.2 µM; TGI (OVCAR-5 ovarian): > 100 µM; GI50 (BT-549 breast): 20.3 µM; TGI (BT-549 breast): 36.5 µM; GI50 (K-562 leukemia): 21.5 µM; TGI (K-562 leukemia): 41.3 µM; GI50 (UACC-257 melanoma): 33.4 µM; TGI (UACC-257 melanoma): > 100 µM; GI50 (OVCAR-8 ovarian): 24.1 µM; TGI (OVCAR-8 ovarian): 58.3 µM; GI50 (HL-60(TB) leukemia): 0.0259 µM; TGI (HL-60(TB) leukemia): 16.9 µM; GI50 (SNB-75 CNS): 31.5 µM; TGI (SNB-75 CNS): 79.2 µM; GI50 (HOP-62 NSCLC): > 100 µM; TGI (HOP-62 NSCLC): > 100 µM; GI50 (UO-31 renal): 86 µM; TGI (UO-31 renal): > 100 µM; GI50 (ACHN renal): 52.2 µM; TGI (ACHN renal): > 100 µM; GI50 (HT29 colon): 21.6 µM; TGI (HT29 colon): 46 µM; GI50 (KM12 colon): 38 µM; TGI (KM12 colon): > 100 µM; GI50 (OVCAR-4 ovarian): 46 µM; TGI (OVCAR-4 ovarian): > 100 µM; GI50 (OVCAR-3 ovarian): 19.6 µM; TGI (OVCAR-3 ovarian): 34.9 µM; GI50 (MDA-MB-435 melanoma): 55.6 µM; TGI (MDA-MB-435 melanoma): > 100 µM; GI50 (NCI-H522 lung): 24.1 µM; TGI (NCI-H522 lung): 51.5 µM; GI50 (HS 578T breast): 16.4 µM; TGI (HS 578T breast): 40 µM; GI50 (MDA-MB-468 breast): 25.4 µM; TGI (MDA-MB-468 breast): 48.4 µM; GI50 (CAKI-1 renal): 38.6 µM; TGI (CAKI-1 renal): > 100 µM; GI50 (NCI/ADR-RES ovarian): > 100 µM; TGI (NCI/ADR-RES ovarian): > 100 µM; GI50 (SF-268 CNS): 22.9 µM; TGI (SF-268 CNS): 49.1 µM; GI50 (SN12C renal): 25.9 µM; TGI (SN12C renal): 89.1 µM; GI50 (SK-MEL-2 melanoma): 27.7 µM; TGI (SK-MEL-2 melanoma): 49.7 µM; GI50 (SW-620 colon): 47.3 µM; TGI (SW-620 colon): > 100 µM; GI50 (HCT-15 colon): 22.7 µM; TGI (HCT-15 colon): 52.6 µM; GI50 (EKVX NSCLC): > 100 µM; TGI (EKVX NSCLC): > 100 µM; GI50 (HOP-92 NSCLC): 38.9 µM; TGI (HOP-92 NSCLC): > 100 µM; GI50 (RXF 393 renal): 24.3 µM; TGI (RXF 393 renal): 57.5 µM; GI50 (NCI-H226 lung): 33.2 µM; TGI (NCI-H226 lung): > 100 µM; GI50 (PC-3 prostate): 19.8 µM; TGI (PC-3 prostate): 39.7 µM; GI50 (SNB-19 CNS): 30.1 µM; TGI (SNB-19 CNS): > 100 µM; GI50 (IGROV1 ovarian): > 100 µM; TGI (IGROV1 ovarian): > 100 µM; GI50 (SF-539 CNS): 12 µM; TGI (SF-539 CNS): 24.9 µM; GI50 (M14 melanoma): 19.4 µM; TGI (M14 melanoma): 38 µM; GI50 (UACC-62 melanoma): 19.2 µM; TGI (UACC-62 melanoma): 40.2 µM; GI50 (RPMI-8226 leukemia): 0.293 µM; TGI (RPMI-8226 leukemia): 11.3 µM; GI50 ([…]-0 renal): 29.7 µM; TGI (786-0 renal): 75.9 µM; GI50 (HCT-116 colon): 20.6 µM; TGI (HCT-116 colon): 39 µM; GI50 (MCF7 breast): 18 µM; TGI (MCF7 breast): > 100 µM; GI50 (CCRF-CEM leukemia): 20.1 µM; TGI (CCRF-CEM leukemia): 34.5 µM; GI50 (U251 glioblastoma): > 100 µM; TGI (U251 glioblastoma): > 100 µM; GI50 (MDA-MB-231 breast): 25.4 µM; TGI (MDA-MB-231 breast): 72.2 µM; GI50 (MOLT-4 leukemia): 14.6 µM; TGI (MOLT-4 leukemia): 27.9 µM; GI50 (DU-145 prostate): 45.7 µM; TGI (DU-145 prostate): > 100 µM; GI50 (MALME-3M melanoma): 0.95 µM; GI50 (SK-MEL-28 melanoma): 47.1 µM; TGI (SK-MEL-28 melanoma): > 100 µM
